This experiment deals with T1, Fsr (Sinorhizobium meliloti, UniProt Q92RK8).
T1 construct: native full-length protein in S. meliloti 1021 cells, compared with fsr::loxSp null mutant; 398 residues; MFS membrane transporter
The experiment is described as follows: fluorometric accumulation and efflux assay, wild-type versus fsr null mutant cells. The settings on record: whole cells, 10 ug/ml EtBr, 0.4% glucose as energy source; CCCP 25 ug/ml as decoupler in parallel; proton-dependent efflux. In kind it is cell-based.

Each structure is given as a SMILES string.

T1 sequence (Q92RK8 entry or part of it): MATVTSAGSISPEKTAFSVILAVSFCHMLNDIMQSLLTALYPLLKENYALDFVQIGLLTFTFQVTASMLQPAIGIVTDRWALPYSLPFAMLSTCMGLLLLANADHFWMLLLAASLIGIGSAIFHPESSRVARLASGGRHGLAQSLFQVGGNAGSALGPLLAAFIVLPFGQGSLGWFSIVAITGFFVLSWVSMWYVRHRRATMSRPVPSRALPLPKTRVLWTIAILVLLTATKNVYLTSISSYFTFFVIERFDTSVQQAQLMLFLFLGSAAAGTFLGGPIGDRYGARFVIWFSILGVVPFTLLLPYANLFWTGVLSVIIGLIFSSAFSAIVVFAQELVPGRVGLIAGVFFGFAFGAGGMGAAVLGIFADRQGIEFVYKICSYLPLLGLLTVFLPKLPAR

Regarding `CC[n+]1c(-c2ccccc2)c2cc(N)ccc2c2ccc(N)cc21` [EtBr, ethidium bromide], the “fluorometric accumulation and efflux assay, wild-type versus fsr null mutant cel” value is “The rate and extent of EtBr efflux were higher in the wild type”.

The values are drawn from PMC12095868, “The Fsr transporter of Sinorhizobium meliloti contributes to antimicrobial resistance and symbiosis with alfalfa” (Microbiology, 2025).
